For assay [1], the target named is Human CB1 Receptor-1b (hCB1b) (Homo sapiens (Human), UniProt P21554). The assay can be described thus: hCB1b Gai cyclic AMP (cAMP) TR-FRET assay, antagonism of EC80 CP55940 with forskolin. The note with it: hCB1b cells, 30 min pre-incubation, read-out: CB1b IC50. In kind it is cell-based. The method, then:
(§1) Example 3. Biochemical Methods Human CB1 Receptor-1 (hCB1) and Human CB1 Receptor-1b (hCBib)
(§2) hCB1/hCB1 b Gai Cyclic AMP (cAMP) Assays: Cells were seeded in a 384-well plate at an appropriate density from frozen cells. The cAMP assays were performed according to the manufacturer's protocol using MULTISCREEN™ TR-FRET cAMP 1.0 No Wash Assay Kit. Cells (hCB1 or hCB1 b) were pre-incubated with customer compounds for 30 minutes at rt followed by addition of EC80 CP55940 concentration and Forskolin. Cells were then incubated for 20 minutes at 37C. The reaction was terminated by sequentially adding sequentially adding MULTISCREEN™ Eu-labeled cAMP and MULTISCREEN™ 650-labeled anti-cAMP antibody in lysis buffer. The plate was then incubated at rt for 30 minutes before reading fluorescent emissions at 620 nm and 665 with excitation at 314 nm on FlexStation III (Molecular Devices). The results are shown in Table 2 (“***” denotes an IC50<100 nM; “**” denotes an IC50 between 100 nM and 500 nM, and “*” denotes an IC50>500 nM).
(TR-FRET usually uses a lanthanide donor and a delayed reading to cut background.)

Assay [2] concerns the target Human CB1 Receptor-1 (hCB1) (Homo sapiens (Human), UniProt P21554). Briefly: hCB1 Gai cyclic AMP (cAMP) TR-FRET assay, antagonism of EC80 CP55940 with forskolin. In kind it is cell-based. Conditions: hCB1 cells, 30 min pre-incubation. The method, then: as §1, §2

We go through 23 compounds from patent publication US20250248973A1, “CANNABINOID RECEPTOR 1 ANTAGONISTS/INVERSE AGONISTS AND USES THEREOF” (Corbus Pharmaceuticals, Inc., priority 2022, published 2025).

Human CB1 Receptor-1 (hCB1), sequence (P21554 whole entry): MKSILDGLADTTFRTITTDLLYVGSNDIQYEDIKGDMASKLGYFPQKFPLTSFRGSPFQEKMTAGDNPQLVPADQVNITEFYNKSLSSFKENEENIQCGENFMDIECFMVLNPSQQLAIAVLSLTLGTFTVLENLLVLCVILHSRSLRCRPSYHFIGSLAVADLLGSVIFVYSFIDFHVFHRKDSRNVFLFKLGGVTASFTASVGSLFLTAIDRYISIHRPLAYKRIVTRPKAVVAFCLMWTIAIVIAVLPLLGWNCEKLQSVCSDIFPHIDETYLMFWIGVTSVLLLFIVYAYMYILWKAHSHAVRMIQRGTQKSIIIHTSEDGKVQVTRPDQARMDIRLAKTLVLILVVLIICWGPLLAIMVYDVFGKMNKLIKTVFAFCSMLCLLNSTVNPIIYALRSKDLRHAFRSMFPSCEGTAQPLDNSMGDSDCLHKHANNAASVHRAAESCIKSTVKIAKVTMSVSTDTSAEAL
Human CB1 Receptor-1b (hCB1b), sequence (P21554 other isoform, or with tags, fused parts or gaps): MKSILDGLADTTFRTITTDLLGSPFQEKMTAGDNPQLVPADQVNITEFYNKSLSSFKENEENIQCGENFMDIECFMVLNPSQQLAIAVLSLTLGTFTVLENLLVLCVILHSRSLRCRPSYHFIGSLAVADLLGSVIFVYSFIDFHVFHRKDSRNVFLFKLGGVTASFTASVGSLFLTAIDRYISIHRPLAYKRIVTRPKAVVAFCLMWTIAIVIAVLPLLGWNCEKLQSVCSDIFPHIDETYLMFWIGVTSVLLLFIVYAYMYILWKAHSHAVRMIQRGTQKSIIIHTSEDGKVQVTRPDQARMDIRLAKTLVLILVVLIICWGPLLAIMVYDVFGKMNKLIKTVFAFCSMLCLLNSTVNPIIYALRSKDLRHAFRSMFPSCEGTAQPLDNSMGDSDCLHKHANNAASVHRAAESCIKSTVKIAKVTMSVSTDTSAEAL

One may read the IC50 as the midpoint of a concentration-inhibition curve. For `NS(=O)(=O)[C@@H]1CC[C@@H](N/C(=N/S(=O)(=O)c2ccc(Cl)cc2)N2C[C@H](c3ccccc3)C(c3ccc(F)cc3)=N2)C1` [Compound 153, (S,Z)-N′-((4-chlorophenyl)sulfonyl)-3-(4-fluorophenyl)-4-phenyl-N-((1R,3R)-3-sulfamoylcyclopentyl)-4,5-dihydro-1H-pyrazole-1-carboximidamide], the IC50 in assay [1] was less than 100 nM; in assay [2], 100 to 500 nM.

For the compound `NS(=O)(=O)N[C@H]1C[C@H](N/C(=N\S(=O)(=O)c2ccc(Cl)cc2)N2C[C@H](c3ccccc3)C(c3ccc(Cl)cc3)=N2)C1` (single isomer, unassigned) [Compound 241], the IC50 in assay [1] is less than 100 nM; in assay [2], 100 to 500 nM.

`CN(C)S(=O)(=O)CCN/C(=N\S(=O)(=O)c1ccc(F)cc1)N1C[C@H](c2ccccc2)C(c2ccc(F)cc2)=N1` [Compound 167, (S,E)-N-(2-(N,N-dimethylsulfamoyl)ethyl)-3-(4-fluorophenyl)-N′-((4-fluorophenyl)sulfonyl)-4-phenyl-4,5-dihydro-1H-pyrazole-1-carboximidamide]: the IC50 in assay [1] and in assay [2] was less than 100 nM each time.

On to `NS(=O)(=O)[C@@H]1CC[C@H](N/C(=N/S(=O)(=O)c2ccc(Cl)cc2)N2C[C@H](c3ccccc3)C(c3ccc(Cl)cc3)=N2)C1` [Compound 143, (S,Z)-3-(4-chlorophenyl)-N′-((4-chlorophenyl)sulfonyl)-4-phenyl-N-((1S,3R)-3-sulfamoylcyclopentyl)-4,5-dihydro-1H-pyrazole-1-carboximidamide], for which the IC50 in assay [1] and in assay [2] was less than 100 nM in each case.

In the case of `NS(=O)(=O)CCNC(=NS(=O)(=O)c1cccc(C(F)(F)F)c1)N1C[C@H](c2ccccc2)C(c2ccc(Cl)cc2)=N1` [Compound 27, (S)-3-(4-chlorophenyl)-4-phenyl-N-(2-sulfamoylethyl)-N′-((3-(trifluoromethyl)phenyl)sulfonyl)-4,5-dihydro-1H-pyrazole-1-carboximidamide], the IC50 in assay [1] and in assay [2] was less than 100 nM in each case.

Consider `NS(=O)(=O)O[C@H]1C[C@@H](N/C(=N\S(=O)(=O)c2ccc(Cl)cc2)N2C[C@@H](c3ccccc3)C(c3ccc(Cl)cc3)=N2)C1` (single isomer, unassigned) [Compound 226], for which the IC50 is less than 100 nM in assay [1] and more than 500 nM in assay [2].

Turning to `CN(C)S(=O)(=O)CCNC(=NS(=O)(=O)c1ccc(Cl)cc1)N1C[C@H](c2ccccc2)C(c2ccc(F)cc2)=N1` [Compound 161, (S,E)-N′-((4-chlorophenyl)sulfonyl)-N-(2-(N,N-dimethylsulfamoyl)ethyl)-3-(4-fluorophenyl)-4-phenyl-4,5-dihydro-1H-pyrazole-1-carboximidamide], the IC50 in assay [1] and in assay [2] was 100 to 500 nM throughout.

On to `CNS(=O)(=O)CCN/C(=N\S(=O)(=O)c1ccc(Cl)cc1)N1C[C@H](c2ccccc2)C(c2ccc(Cl)cc2)=N1` [Compound 169, (S,E)-3-(4-chlorophenyl)-N′-((4-chlorophenyl)sulfonyl)-N-(2-(N-methylsulfamoyl)ethyl)-4-phenyl-4,5-dihydro-1H-pyrazole-1-carboximidamide], for which the IC50 in assay [1] and in assay [2] was less than 100 nM throughout.

For the compound `NS(=O)(=O)CCNC(=NS(=O)(=O)c1cccnc1)N1C[C@H](c2ccccc2)C(c2ccc(Cl)cc2)=N1` [Compound 65, (S)-3-(4-chlorophenyl)-4-phenyl-N′-(pyridin-3-ylsulfonyl)-N-(2-sulfamoylethyl)-4,5-dihydro-1H-pyrazole-1-carboximidamide], the IC50 in assay [1] and in assay [2] was less than 100 nM each time.

In the case of `NS(=O)(=O)[C@@H]1CCN(/C(=N/S(=O)(=O)c2ccc(Cl)cc2)N2C[C@H](c3ccccc3)C(c3ccc(Cl)cc3)=N2)C1` (single isomer, unassigned) [Compound 136], the IC50 in assay [1] and in assay [2] was more than 500 nM throughout.

For the compound `NS(=O)(=O)[C@H]1CCN(/C(=N/S(=O)(=O)c2ccc(Cl)cc2)N2C[C@H](c3ccccc3)C(c3ccc(Cl)cc3)=N2)C1` (single isomer, unassigned) [Compound 135], the half-maximal inhibitory concentration (IC50) in assay [1] and in assay [2] was more than 500 nM each time.

For `NS(=O)(=O)[C@H]1C[C@@H](N/C(=N/S(=O)(=O)c2ccc(Cl)cc2)N2C[C@H](c3ccccc3)C(c3ccc(F)cc3)=N2)C1` (single isomer, unassigned) [Compound 129], the IC50 in assay [1] and in assay [2] was more than 500 nM in each case.

`NS(=O)(=O)[C@@H]1CC[C@H](N/C(=N/S(=O)(=O)c2ccc(Cl)cc2)N2C[C@H](c3ccccc3)C(c3ccc(F)cc3)=N2)C1` [Compound 149, (S,Z)-N′-((4-chlorophenyl)sulfonyl)-3-(4-fluorophenyl)-4-phenyl-N-((1S,3R)-3-sulfamoylcyclopentyl)-4,5-dihydro-1H-pyrazole-1-carboximidamide]: the IC50 in assay [1] and in assay [2] was 100 to 500 nM each time.

As to `C[C@@H](CN/C(=N\S(=O)(=O)c1ccc(F)cc1)N1C[C@H](c2ccccc2)C(c2ccc(F)cc2)=N1)S(N)(=O)=O` [Compound 54, (S,E)-3-(4-fluorophenyl)-N′-((4-fluorophenyl)sulfonyl)-4-phenyl-N-((S)-2-sulfamoylpropyl)-4,5-dihydro-1H-pyrazole-1-carboximidamide], the IC50 in assay [1] and in assay [2] was less than 100 nM throughout.

Consider `C[C@@H](CN/C(=N\S(=O)(=O)c1ccc(F)cc1)N1C[C@H](c2ccccc2)C(c2ccc(Cl)cc2)=N1)S(N)(=O)=O` [Compound 13, (S,E)-3-(4-chlorophenyl)-N′-((4-fluorophenyl)sulfonyl)-4-phenyl-N-((S)-2-sulfamoylpropyl)-4,5-dihydro-1H-pyrazole-1-carboximidamide], for which the IC50 in assay [1] and in assay [2] was less than 100 nM throughout.

On to `NS(=O)(=O)N1CC[C@@H](N/C(=N/S(=O)(=O)c2ccc(Cl)cc2)N2C[C@H](c3ccccc3)C(c3ccc(Cl)cc3)=N2)C1` [Compound 247, (S,Z)-3-(4-chlorophenyl)-N′-((4-chlorophenyl)sulfonyl)-4-phenyl-N-((R)-1-sulfamoylpyrrolidin-3-yl)-4,5-dihydro-1H-pyrazole-1-carboximidamide], for which the figures for the 50% inhibitory concentration (IC50) in assay [1] and in assay [2] were less than 100 nM and 100 to 500 nM, respectively.

Take `C[C@@H](CS(N)(=O)=O)N/C(=N\S(=O)(=O)c1ccc(Cl)cc1)N1CC(c2ccccc2)C(c2ccc(Cl)cc2)=N1` (stereo in doubt) [Compound 1, (R,E)-3-(4-chlorophenyl)-N′-((4-chlorophenyl)sulfonyl)-4-phenyl-N-((S)-1-sulfamoylpropan-2-yl)-4,5-dihydro-1H-pyrazole-1-carboximidamide]: the IC50 in assay [1] and in assay [2] was less than 100 nM each time.

`CN(CCS(N)(=O)=O)/C(=N/S(=O)(=O)c1ccc(Cl)cc1)N1C[C@H](c2ccccc2)C(c2ccc(Cl)cc2)=N1` [Compound 109, (S,Z)-3-(4-chlorophenyl)-N′-((4-chlorophenyl)sulfonyl)-N-methyl-4-phenyl-N-(2-sulfamoylethyl)-4,5-dihydro-1H-pyrazole-1-carboximidamide]: the IC50 in assay [1] and in assay [2] was more than 500 nM in each case.

`NS(=O)(=O)[C@H]1CC[C@H](N/C(=N/S(=O)(=O)c2ccc(Cl)cc2)N2C[C@H](c3ccccc3)C(c3ccc(F)cc3)=N2)C1` [Compound 151, (S,Z)-N′-((4-chlorophenyl)sulfonyl)-3-(4-fluorophenyl)-4-phenyl-N-((1S,3S)-3-sulfamoylcyclopentyl)-4,5-dihydro-1H-pyrazole-1-carboximidamide]: the IC50 is less than 100 nM in assay [1] and 100 to 500 nM in assay [2].

As for `NS(=O)(=O)N[C@H]1C[C@@H](N/C(=N\S(=O)(=O)c2ccc(C(F)(F)F)cc2)N2C[C@H](c3ccccc3)C(c3ccc(Cl)cc3)=N2)C1` (single isomer, unassigned) [Compound 245], the IC50 in assay [1] was less than 100 nM; in assay [2], 100 to 500 nM.

Turning to `NS(=O)(=O)CCN/C(=N\S(=O)(=O)c1ccc(C(F)(F)F)cc1)N1C[C@H](c2ccccc2)C(c2ccc(F)cc2)=N1` [Compound 43, (S,E)-3-(4-fluorophenyl)-4-phenyl-N-(2-sulfamoylethyl)-N′-((4-(trifluoromethyl)phenyl)sulfonyl)-4,5-dihydro-1H-pyrazole-1-carboximidamide], the IC50 in assay [1] and in assay [2] was less than 100 nM in each case.

Take `CC(C)(CN/C(=N\S(=O)(=O)c1ccc(Cl)cc1)N1C[C@H](c2ccccc2)C(c2ccc(Cl)cc2)=N1)CS(N)(=O)=O` [Compound 87, (S,E)-3-(4-chlorophenyl)-N′-((4-chlorophenyl)sulfonyl)-N-(2,2-dimethyl-3-sulfamoylpropyl)-4-phenyl-4,5-dihydro-1H-pyrazole-1-carboximidamide]: the 50% inhibitory concentration (IC50) in assay [1] and in assay [2] was 100 to 500 nM each time.

As for `C[C@H](CN/C(=N\S(=O)(=O)c1ccc(C(F)(F)F)cc1)N1C[C@H](c2ccccc2)C(c2ccc(Cl)cc2)=N1)S(N)(=O)=O` [Compound 17, (S,E)-3-(4-chlorophenyl)-4-phenyl-N-((R)-2-sulfamoylpropyl)-N′-((4-(trifluoromethyl)phenyl)sulfonyl)-4,5-dihydro-1H-pyrazole-1-carboximidamide], the IC50 in assay [1] was more than 500 nM; in assay [2] it was less than 100 nM.
